# Reference: ChEMBL document CHEMBL1128786, “Design, synthesis and evaluation of C/D-ring analogs of the fungal metabolite K-76 as potential complement inhibitors” (Bioorg Med Chem Lett, 1995)
# pEC50, pIC50: −log10 of the molar value.
# What was measured:
# Homo sapiens = species: Homo sapiens; experiment: The concentration of compound required to inhibit complement induced hemolysis by 50%; assay type: functional
# [1] = The concentration of compound required to cause 50% hemolysis in the absence of complement; assay type: functional, Ovis aries
Compound,pIC50 (Homo sapiens),pEC50 [1]
COc1cc(C=O)cc2c1CC(C)(C)O2,2.96,< 2.84
CC1(C)Cc2c(Oc3ccccc3)cc(C(=O)O)cc2O1,< 2.98,< 2.98
CC1(C)Cc2c(O)cc(C(=O)O)cc2O1,< 2.84,< 2.84
CC1(C)Cc2c(Oc3ccccc3)cc(-c3nn[nH]n3)cc2O1,3.71,3.19
C[C@@H]1CCC2C(C)(C)[C@H](O)[C@H](O)C[C@]2(C)[C@@]12Cc1c(O)cc(C(=O)O)c(C=O)c1O2 (some centres not stated),–,< 3.17
COc1cc(C(=O)O)cc2c1CC(C)(C)O2,< 2.87,< 2.87
COc1cc(-c2nn[nH]n2)cc2c1CC(C)(C)O2,3.61,< 2.91
CC1(C)Cc2c(Oc3ccccc3)cc(C=O)cc2O1,< 2.95,< 2.95
CC1(C)Cc2c(O)cc(C=O)cc2O1,< 2.81,< 2.81
